Measured values taken from patent US8633183B2 (priority 2010, dated 2014).

Target: PI3Kalpha (Homo sapiens (Human), UniProt P42336)
Conditions: read-out: IC50 PI3K

PI3Kalpha, sequence (P42336 whole entry, looked up): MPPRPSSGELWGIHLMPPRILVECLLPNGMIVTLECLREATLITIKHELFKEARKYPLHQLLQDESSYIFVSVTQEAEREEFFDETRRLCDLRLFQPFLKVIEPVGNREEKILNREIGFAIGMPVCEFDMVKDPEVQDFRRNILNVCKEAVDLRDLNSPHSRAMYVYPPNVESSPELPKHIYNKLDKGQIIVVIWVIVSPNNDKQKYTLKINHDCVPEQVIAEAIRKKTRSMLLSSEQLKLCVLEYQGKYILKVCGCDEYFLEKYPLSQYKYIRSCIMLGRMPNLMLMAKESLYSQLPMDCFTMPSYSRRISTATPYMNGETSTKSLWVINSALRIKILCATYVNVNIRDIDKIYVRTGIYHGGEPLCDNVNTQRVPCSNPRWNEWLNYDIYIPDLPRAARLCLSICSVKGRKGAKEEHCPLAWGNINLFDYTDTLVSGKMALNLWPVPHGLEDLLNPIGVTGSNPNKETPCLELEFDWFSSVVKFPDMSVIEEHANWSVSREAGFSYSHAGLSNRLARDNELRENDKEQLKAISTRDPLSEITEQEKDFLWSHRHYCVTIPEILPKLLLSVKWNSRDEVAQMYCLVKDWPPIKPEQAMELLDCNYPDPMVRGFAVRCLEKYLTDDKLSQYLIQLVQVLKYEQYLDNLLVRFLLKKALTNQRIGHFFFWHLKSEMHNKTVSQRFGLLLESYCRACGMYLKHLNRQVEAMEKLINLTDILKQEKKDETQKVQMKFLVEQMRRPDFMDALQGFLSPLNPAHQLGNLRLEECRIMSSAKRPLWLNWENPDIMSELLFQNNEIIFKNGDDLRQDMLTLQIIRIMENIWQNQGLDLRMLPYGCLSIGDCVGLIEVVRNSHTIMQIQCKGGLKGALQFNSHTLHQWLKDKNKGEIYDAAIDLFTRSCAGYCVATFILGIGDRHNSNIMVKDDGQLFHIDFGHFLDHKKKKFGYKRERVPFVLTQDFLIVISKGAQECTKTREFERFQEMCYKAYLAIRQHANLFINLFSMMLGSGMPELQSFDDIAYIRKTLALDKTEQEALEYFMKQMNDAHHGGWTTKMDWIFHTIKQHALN

## CCc1ncnc(-c2ccc(C(=O)N3CC[C@H](O)C3)c(Cl)c2)c1C#Cc1ccc(N)nc1 [Example E-27]
  IC50: 0.0583 µM

## CCc1ncnc(-c2ccc(C(=O)N3CC[C@@H](O)C3)c(Cl)c2)c1C#Cc1ccc(N)nc1 [Example E-28]
  IC50: 0.0656 µM

## CCc1ncnc(-c2ccc(C(=O)N3CCCC(O)C3)c(Cl)c2)c1C#Cc1ccc(N)nc1 (stereo not drawn) [Example E-29]
  IC50: 0.065 µM

## CCc1ncnc(-c2ccc(C(=O)N3CCNCC3)c(Cl)c2)c1C#Cc1ccc(N)nc1 [Example E-34]
  IC50: 0.164 µM

## CCc1ncnc(-c2ccc(C(=O)N(C)O)c(Cl)c2)c1C#Cc1ccc(N)nc1 [Example E-35]
  IC50: 0.0674 µM

## CCc1ncnc(-c2ccc(C(=O)N3CCCN(C)CC3)c(Cl)c2)c1C#Cc1ccc(N)nc1 [Example E-36]
  IC50: 0.405 µM

## CCc1ncnc(-c2ccc(C(=O)N3CCN(c4ccncc4)CC3)c(Cl)c2)c1C#Cc1ccc(N)nc1 [Example E-37]
  IC50: 0.209 µM

## CCc1ncnc(-c2ccc(C(=O)N3CCC(O)CC3)c(Cl)c2)c1C#Cc1ccc(N)nc1 [Example E-38]
  IC50: 0.0529 µM

## CCc1ncnc(-c2ccc(C(=O)N3CCCOCC3)c(Cl)c2)c1C#Cc1ccc(N)nc1 [Example E-39]
  IC50: 0.0653 µM

## CCc1ncnc(-c2ccc(C(=O)N3CCC4(CCN(C)C4)C3)c(Cl)c2)c1C#Cc1ccc(N)nc1 (stereo not drawn) [Example E-40]
  IC50: 0.514 µM

## CCc1ncnc(-c2ccc(C(=O)NCC3(C)COC3)c(Cl)c2)c1C#Cc1ccc(N)nc1 [Example E-41]
  IC50: 0.066 µM

## CCCCN1CCN(C(=O)c2ccc(-c3ncnc(CC)c3C#Cc3ccc(N)nc3)cc2OC)CC1 [Example E-43]
  IC50: 0.502 µM

## CCc1ncnc(-c2ccc(C(=O)N3CCC(C(C)(C)O)CC3)c(OC)c2)c1C#Cc1ccc(N)nc1 [Example E-44]
  IC50: 0.232 µM

## CCc1ncnc(-c2ccc(C(=O)N3CCC(N4CCN(C)CC4)CC3)c(OC)c2)c1C#Cc1ccc(N)nc1 [Example E-45]
  IC50: 0.0969 µM

## CCc1ncnc(-c2ccc(C(=O)N3CCCC(O)C3)c(OC)c2)c1C#Cc1ccc(N)nc1 (stereo not drawn) [Example E-46]
  IC50: 0.104 µM

## CCc1ncnc(-c2ccc(C(=O)N3CCOCC3)c(OC)c2)c1C#Cc1ccc(N)nc1 [Example E-48]
  IC50: 0.1 µM

## CCc1ncnc(-c2ccc(C(=O)N3CC(O)CO3)c(OC)c2)c1C#Cc1ccc(N)nc1 (stereo not drawn) [Example E-49]
  IC50: 0.0745 µM

## CCc1ncnc(-c2ccc(C(=O)N3CCCO3)c(OC)c2)c1C#Cc1ccc(N)nc1 [Example E-50]
  IC50: 0.157 µM

## CCc1ncnc(-c2ccc(C(=O)N3CCCC(N(C)C)C3)c(OC)c2)c1C#Cc1ccc(N)nc1 (stereo not drawn) [Example E-51]
  IC50: 0.205 µM

## CCc1ncnc(-c2ccc(C(=O)N3CCC(N4CCC(C)CC4)C3)c(OC)c2)c1C#Cc1ccc(N)nc1 (stereo not drawn) [Example E-52]
  IC50: 0.578 µM

## CCc1ncnc(-c2ccc(C(=O)N3CCN(C4CCS(=O)(=O)C4)CC3)c(OC)c2)c1C#Cc1ccc(N)nc1 (stereo not drawn) [Example E-54]
  IC50: 0.165 µM

## CCc1ncnc(-c2ccc(C(=O)N3CC[C@H](N(C)C)C3)c(OC)c2)c1C#Cc1ccc(N)nc1 [Example E-55]
  IC50: 0.148 µM

## CCc1ncnc(-c2ccc(C(=O)N3CCN4CCCCC4C3)c(OC)c2)c1C#Cc1ccc(N)nc1 (stereo not drawn) [Example E-57]
  IC50: 0.28 µM

## CCc1ncnc(-c2ccc(C(=O)N3CCC(N4CCCCCC4)CC3)c(OC)c2)c1C#Cc1ccc(N)nc1 [Example E-58]
  IC50: 0.253 µM

## CCc1ncnc(-c2ccc(C(=O)N3CCC(N(C)C)CC3)c(OC)c2)c1C#Cc1ccc(N)nc1 [Example E-59]
  IC50: 0.294 µM

## CCc1ncnc(-c2ccc(C(=O)N(C)OC)c(OC)c2)c1C#Cc1ccc(N)nc1 [Example E-60]
  IC50: 0.0694 µM

## CCc1ncnc(-c2ccc(C(=O)N(C)C3CCS(=O)(=O)C3)c(OC)c2)c1C#Cc1ccc(N)nc1 (stereo not drawn) [Example E-61]
  IC50: 0.103 µM

## CCOC(=O)N1CCN(C(=O)c2ccc(-c3ncnc(CC)c3C#Cc3ccc(N)nc3)cc2OC)CC1 [Example E-62]
  IC50: 0.246 µM

## CCc1ncnc(-c2ccc(C(=O)NCCN3CCOCC3)c(OC)c2)c1C#Cc1ccc(N)nc1 [Example E-64]
  IC50: 0.118 µM

## CCc1ncnc(-c2ccc(C(=O)N(C)CCN3CCCC3=O)c(OC)c2)c1C#Cc1ccc(N)nc1 [Example E-65]
  IC50: 0.088 µM

## CCc1ncnc(-c2ccc(C(=O)N3CCC4(CCN(C)C4)C3)c(OC)c2)c1C#Cc1ccc(N)nc1 (stereo not drawn) [Example E-66]
  IC50: 0.662 µM

## CCc1ncnc(-c2ccc(C(=O)N3CCN(CC4CCCCC4)CC3)c(OC)c2)c1C#Cc1ccc(N)nc1 [Example E-67]
  IC50: 3.05 µM

## CCc1ncnc(-c2ccc(C(=O)N3CCN(C4CCCC4)CC3)c(OC)c2)c1C#Cc1ccc(N)nc1 [Example E-68]
  IC50: 0.412 µM

## CCc1ncnc(-c2ccc(C(=O)N3CCN(Cc4ccccc4)CC3)c(OC)c2)c1C#Cc1ccc(N)nc1 [Example E-69]
  IC50: 0.415 µM

## CCc1ncnc(-c2ccc(C(=O)N3CCC(N4CCN(C)CC4)CC3)c(Cl)c2)c1C#Cc1ccc(N)nc1 [Example E-70]
  IC50: 0.137 µM

## CCc1ncnc(-c2ccc(C(=O)N3CCC(N4CCOCC4)CC3)c(Cl)c2)c1C#Cc1ccc(N)nc1 [Example E-71]
  IC50: 0.0999 µM

## CCc1ncnc(-c2ccc(C(=O)N3CCOCC3)c(Cl)c2)c1C#Cc1ccc(N)nc1 [Example E-72]
  IC50: 0.0665 µM

## CCc1ncnc(-c2ccc(C(=O)N3CC(O)CO3)c(Cl)c2)c1C#Cc1ccc(N)nc1 (stereo not drawn) [Example E-73]
  IC50: 0.0883 µM

## CCc1ncnc(-c2ccc(C(=O)N3CCCO3)c(Cl)c2)c1C#Cc1ccc(N)nc1 [Example E-74]
  IC50: 0.0539 µM

## CCc1ncnc(-c2ccc(C(=O)N3CCCC(N(C)C)C3)c(Cl)c2)c1C#Cc1ccc(N)nc1 (stereo not drawn) [Example E-75]
  IC50: 0.275 µM

## CCc1ncnc(-c2ccc(C(=O)N3CCC(N4CCC(C)CC4)C3)c(Cl)c2)c1C#Cc1ccc(N)nc1 (stereo not drawn) [Example E-76]
  IC50: 0.233 µM

## CCc1ncnc(-c2ccc(C(=O)N(C)OC)c(Cl)c2)c1C#Cc1ccc(N)nc1 [Example E-79]
  IC50: 0.05 µM

## CCc1ncnc(-c2ccc(C(=O)N(C)C3CCS(=O)(=O)C3)c(Cl)c2)c1C#Cc1ccc(N)nc1 (stereo not drawn) [Example E-80]
  IC50: 0.0482 µM

## CCc1ncnc(-c2ccc(C(=O)N3CCN(S(=O)(=O)CC)CC3)c(Cl)c2)c1C#Cc1ccc(N)nc1 [Example E-81]
  IC50: 0.0395 µM

## CCOC(=O)N1CCN(C(=O)c2ccc(-c3ncnc(CC)c3C#Cc3ccc(N)nc3)cc2Cl)CC1 [Example E-82]
  IC50: 0.0817 µM

## CCc1ncnc(-c2ccc(C(=O)NCCN3CCOCC3)c(Cl)c2)c1C#Cc1ccc(N)nc1 [Example E-84]
  IC50: 0.113 µM

## CCc1ncnc(-c2ccc(C(=O)N(C)CCN3CCCC3=O)c(Cl)c2)c1C#Cc1ccc(N)nc1 [Example E-85]
  IC50: 0.0564 µM

## CCCCN1CCN(C(=O)c2ccc(-c3ncnc(CC)c3C#Cc3ccc(N)nc3)cc2C)CC1 [Example E-86]
  IC50: 0.147 µM

## CCc1ncnc(-c2ccc(C(=O)N3CCC(C(C)(C)O)CC3)c(C)c2)c1C#Cc1ccc(N)nc1 [Example E-87]
  IC50: 0.0788 µM

## CCc1ncnc(-c2ccc(C(=O)N3CCN(C4CCOCC4)CC3)c(C)c2)c1C#Cc1ccc(N)nc1 [Example E-88]
  IC50: 0.0844 µM

## CCc1ncnc(-c2ccc(C(=O)N3CCC(N4CCOCC4)CC3)c(C)c2)c1C#Cc1ccc(N)nc1 [Example E-91]
  IC50: 0.179 µM

## CCc1ncnc(-c2ccc(C(=O)N3CCOCC3)c(C)c2)c1C#Cc1ccc(N)nc1 [Example E-92]
  IC50: 0.0595 µM

## CCc1ncnc(-c2ccc(C(=O)N3CC(O)CO3)c(C)c2)c1C#Cc1ccc(N)nc1 (stereo not drawn) [Example E-93]
  IC50: 0.107 µM

## CCc1ncnc(-c2ccc(C(=O)N3CCCO3)c(C)c2)c1C#Cc1ccc(N)nc1 [Example E-94]
  IC50: 0.146 µM
